A short description of the series: Long term storage stability of purified Mitragynine. Format: physicochemical. To be noted: stored at 2° C.-8° C.

Regarding `CC[C@@H]1CN2CCc3c([nH]c4cccc(OC)c34)[C@@H]2C[C@@H]1/C(=C\OC)C(=O)OC` [Mitragynine], the Storage stability result is “stable for long term storage”.

The record behind these values is patent US20260272896A1, “ORAL D[…] OF MITRAGYNINE” (LUCKY 4U EXIMS, priority 2023, published 2026).
